Results taken from patent US8252832B2, “Kinesin inhibitors as cancer therapeutics” (Novartis AG, priority 2007, dated 2012).
Like-named read-outs stand apart in the source and are kept apart here.

Test system: panel of cell lines derived from hematological malignancies
Test: Cell survival assay, CellTiter-Glo readout after 48 hours, hematological panel
Format: cell-based
Parameters: key to Differential: panel average log(GI50) minus cell line log(GI50); positive = more sensitive
Procedure: Compound IIa was tested against a panel of cell lines derived from hematological malignancies in a cell survival assay using CellTiter-Glo® as a readout after 48 hours in the presence of compound. Table 18 lists the type of hematological malignancy, the name of the sample, its GI50 (concentration needed to achieve 50% growth inhibition) value in the assay, the logarithm of the GI50 (log(GI50), and the relative sensitivity of each sample (Differential). The differential is calculated by subtracting the log(GI50) for each cell line from the average log(GI50) across the entire panel (0.236 in this case); a positive value indicates a sample that is more sensitive than average, whereas a negative value indicates a sample that is less sensitive than average.

SMILES: CC(C)(C)[C@H](c1nc(-c2cc(F)ccc2F)cn1Cc1ccccc1)N(CC[C@H](N)CF)C(=O)CO [Compound IIa]
- Differential (697 (ALL)): 0.613
- GI50 (48 h, 697 (ALL), read-out: GI50): 0.11 nM
- GI50 (48 h, 697 (ALL), read-out: Log(GI50) (converted)): 0.105 nM
- GI50 (48 h, AML-193 (AML), read-out: GI50): 0.11 nM
- GI50 (48 h, AML-193 (AML), read-out: Log(GI50) (converted)): 0.11 nM
- GI50 (48 h, DEL (NHL), read-out: GI50): 0.28 nM
- GI50 (48 h, DEL (NHL), read-out: Log(GI50) (converted)): 0.283 nM
- GI50 (48 h, H929-Luc (MM), read-out: GI50): 1.69 nM
- GI50 (48 h, H929-Luc (MM), read-out: Log(GI50) (converted)): 1.69 nM
- GI50 (48 h, HEL92 (AML), read-out: GI50): 0.49 nM
- GI50 (48 h, HEL92 (AML), read-out: Log(GI50) (converted)): 0.49 nM
- GI50 (48 h, HH (NHL), read-out: GI50): 0.22 nM
- GI50 (48 h, HH (NHL), read-out: Log(GI50) (converted)): 0.215 nM
- GI50 (48 h, KMS11-Luc (MM), read-out: GI50): 0.29 nM
- GI50 (48 h, KMS11-Luc (MM), read-out: Log(GI50) (converted)): 0.29 nM
- GI50 (48 h, KMS12 (MM), read-out: GI50): 0.29 nM
- GI50 (48 h, KMS12 (MM), read-out: Log(GI50) (converted)): 0.29 nM
- GI50 (48 h, KMS18-Luc (MM), read-out: GI50): 0.52 nM
- GI50 (48 h, KMS18-Luc (MM), read-out: Log(GI50) (converted)): 0.518 nM
- GI50 (48 h, Karpas-299-Luc (NHL), read-out: GI50): 20.2 nM
- GI50 (48 h, Karpas-299-Luc (NHL), read-out: Log(GI50) (converted)): 20.2 nM
- GI50 (48 h, LP1 (MM), read-out: GI50): 0.21 nM
- GI50 (48 h, LP1 (MM), read-out: Log(GI50) (converted)): 0.205 nM
- GI50 (48 h, MHH-CALL-2 (ALL), read-out: GI50): 0.32 nM
- GI50 (48 h, MHH-CALL-2 (ALL), read-out: Log(GI50) (converted)): 0.315 nM
- GI50 (48 h, MHH-CALL-3 (ALL), read-out: GI50): 0.2 nM
- GI50 (48 h, MHH-CALL-3 (ALL), read-out: Log(GI50) (converted)): 0.2 nM
- GI50 (48 h, MM1-S-Luc (MM), read-out: GI50): 0.23 nM
- GI50 (48 h, MM1-S-Luc (MM), read-out: Log(GI50) (converted)): 0.23 nM
- GI50 (48 h, MOLM13-Luc (AML), read-out: GI50): 0.23 nM
- GI50 (48 h, MOLM13-Luc (AML), read-out: Log(GI50) (converted)): 0.226 nM
- GI50 (48 h, MUTZ-5 (ALL), read-out: GI50): 10 nM
- GI50 (48 h, MUTZ-5 (ALL), read-out: Log(GI50) (converted)): 10 nM
- GI50 (48 h, MV4, 11Luc (AML), read-out: GI50): 0.11 nM
- GI50 (48 h, MV4, 11Luc (AML), read-out: Log(GI50) (converted)): 0.105 nM
- GI50 (48 h, Mean across the entire panel, read-out: GI50): 0.43 nM
- GI50 (48 h, Mean across the entire panel, read-out: Log(GI50) (converted)): 0.431 nM
- GI50 (48 h, NALM-19 (ALL), read-out: GI50): 0.19 nM
- GI50 (48 h, NALM-19 (ALL), read-out: Log(GI50) (converted)): 0.19 nM
- GI50 (48 h, REH (ALL), read-out: GI50): 0.18 nM
- GI50 (48 h, REH (ALL), read-out: Log(GI50) (converted)): 0.18 nM
- GI50 (48 h, RL (NHL), read-out: GI50): 20 nM
- GI50 (48 h, RL (NHL), read-out: Log(GI50) (converted)): 20 nM
- GI50 (48 h, SEM-Luc (ALL), read-out: GI50): 0.15 nM
- GI50 (48 h, SEM-Luc (ALL), read-out: Log(GI50) (converted)): 0.15 nM
- GI50 (48 h, SR (NHL), read-out: GI50): 0.11 nM
- GI50 (48 h, SR (NHL), read-out: Log(GI50) (converted)): 0.11 nM
- GI50 (48 h, TANOUE (ALL), read-out: GI50): 10 nM
- GI50 (48 h, TANOUE (ALL), read-out: Log(GI50) (converted)): 10 nM
- GI50 (48 h, YT (ALL), read-out: GI50): 10 nM
- GI50 (48 h, YT (ALL), read-out: Log(GI50) (converted)): 10 nM
- GI50 (48 h, hematological panel, read-out: average log(GI50) across the entire panel (converted)): 1.72 nM
- Differential (AML-193 (AML)): 0.593
- Differential (CCRF-CEM (ALL)): 0.419
- Differential (CCRF-HSB-2 (ALL)): 0.367
- Differential (DEL (NHL)): 0.182
- Differential (DOHH2 (NHL)): 0.263
- Differential (H929 (MM)): 0.109
- Differential (H929-Luc (MM)): −0.593
- Differential (HDLM-2 (HL)): 0.555
- Differential (HEL92 (AML)): −0.056
- Differential (HH (NHL)): 0.301
- Differential (HL60 (AML)): 0.416
- Differential (HL60-Luc (AML)): −0.072
- GI50 (HL-60-Luc, 48 h, HL60-Luc (AML), read-out: GI50): 0.51 nM
- GI50 (HL-60-Luc, 48 h, HL60-Luc (AML), read-out: Log(GI50) (converted)): 0.508 nM
- GI50 (Homo sapiens, CCRF-CEM, 48 h, CCRF-CEM (ALL), read-out: GI50): 0.16 nM
- GI50 (Homo sapiens, CCRF-CEM, 48 h, CCRF-CEM (ALL), read-out: Log(GI50) (converted)): 0.164 nM
- GI50 (Homo sapiens, CCRF-HSB-2, 48 h, CCRF-HSB-2 (ALL), read-out: GI50): 0.19 nM
- GI50 (Homo sapiens, CCRF-HSB-2, 48 h, CCRF-HSB-2 (ALL), read-out: Log(GI50) (converted)): 0.185 nM
- GI50 (Homo sapiens, DOHH-2, 48 h, DOHH2 (NHL), read-out: GI50): 0.24 nM
- GI50 (Homo sapiens, DOHH-2, 48 h, DOHH2 (NHL), read-out: Log(GI50) (converted)): 0.235 nM
- GI50 (Homo sapiens, HDLM-2, 48 h, HDLM-2 (HL), read-out: GI50): 0.12 nM
- GI50 (Homo sapiens, HDLM-2, 48 h, HDLM-2 (HL), read-out: Log(GI50) (converted)): 0.12 nM
- GI50 (Homo sapiens, HL-60, 48 h, HL60 (AML), read-out: GI50): 0.17 nM
- GI50 (Homo sapiens, HL-60, 48 h, HL60 (AML), read-out: Log(GI50) (converted)): 0.165 nM
- GI50 (Homo sapiens, HuT78, 48 h, HuT78 (NHL), read-out: GI50): 0.28 nM
- GI50 (Homo sapiens, HuT78, 48 h, HuT78 (NHL), read-out: Log(GI50) (converted)): 0.275 nM
- GI50 (Homo sapiens, K562, 48 h, K562 (CML), read-out: GI50): 0.21 nM
- GI50 (Homo sapiens, K562, 48 h, K562 (CML), read-out: Log(GI50) (converted)): 0.209 nM
- GI50 (Homo sapiens, KARPAS-299, 48 h, Karpas-299 (NHL), read-out: GI50): 0.2 nM
- GI50 (Homo sapiens, KARPAS-299, 48 h, Karpas-299 (NHL), read-out: Log(GI50) (converted)): 0.2 nM
- GI50 (Homo sapiens, KARPAS-422, 48 h, Karpas-422 (NHL), read-out: GI50): 5.14 nM
- GI50 (Homo sapiens, KARPAS-422, 48 h, Karpas-422 (NHL), read-out: Log(GI50) (converted)): 5.14 nM
- GI50 (Homo sapiens, KM-H2, 48 h, KM-H2 (HL), read-out: GI50): 0.23 nM
- GI50 (Homo sapiens, KM-H2, 48 h, KM-H2 (HL), read-out: Log(GI50) (converted)): 0.233 nM
- GI50 (Homo sapiens, KMS-11, 48 h, KMS11 (MM), read-out: GI50): 0.48 nM
- GI50 (Homo sapiens, KMS-11, 48 h, KMS11 (MM), read-out: Log(GI50) (converted)): 0.483 nM
- GI50 (Homo sapiens, Kasumi 1, 48 h, Kasumi-1 (AML), read-out: GI50): 0.44 nM
- GI50 (Homo sapiens, Kasumi 1, 48 h, Kasumi-1 (AML), read-out: Log(GI50) (converted)): 0.44 nM
- GI50 (Homo sapiens, L-363, 48 h, L363 (MM), read-out: GI50): 0.13 nM
- GI50 (Homo sapiens, L-363, 48 h, L363 (MM), read-out: Log(GI50) (converted)): 0.13 nM
- GI50 (Homo sapiens, L-428, 48 h, L428 (HL), read-out: GI50): 20 nM
- GI50 (Homo sapiens, L-428, 48 h, L428 (HL), read-out: Log(GI50) (converted)): 20 nM
